What is called inhibition is how much of the control response was suppressed. As a reminder, the Emax is the maximal effect, on the per cent scale that the assay sets. A word on the pEC50: it is the EC50 on a negative log10 scale, so that one unit is a factor of ten. The low end stands for a large EC50, the high end for a small EC50. The term pKi denotes the negative decadic logarithm of the Ki, by convention in mol/L. A high value points to a small Ki.

The record followed here is ChEMBL document CHEMBL1146741, “Cycloalkyl[b][1,4]benzodiazepinoindoles are agonists at the human 5-HT2C receptor” (Bioorg Med Chem Lett, 2004).

pEC50, pKi: −log10 of the molar value.

Assay [1] has as its target T1, 5-hydroxytryptamine receptor 1A (Homo sapiens) (UniProt P08908).
T1 sequence (whole entry): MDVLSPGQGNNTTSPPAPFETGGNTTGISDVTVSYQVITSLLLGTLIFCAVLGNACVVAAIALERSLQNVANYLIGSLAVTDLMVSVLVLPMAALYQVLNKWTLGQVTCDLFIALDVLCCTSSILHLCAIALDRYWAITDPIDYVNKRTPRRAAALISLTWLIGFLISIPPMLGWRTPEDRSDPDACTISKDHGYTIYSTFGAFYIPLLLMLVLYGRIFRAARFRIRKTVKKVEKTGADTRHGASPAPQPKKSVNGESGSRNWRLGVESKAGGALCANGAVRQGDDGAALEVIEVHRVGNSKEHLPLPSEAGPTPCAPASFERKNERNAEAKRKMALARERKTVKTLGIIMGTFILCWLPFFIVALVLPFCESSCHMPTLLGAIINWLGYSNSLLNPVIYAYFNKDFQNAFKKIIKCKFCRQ
As to the kind of experiment: Percent binding affinity against 5-hydroxytryptamine 1A receptor. The following applies: concentration not given here.

For assay [2], the target named is D(4) dopamine receptor (Homo sapiens) (UniProt P21917). Nature of the assay: Percent binding affinity against dopamine receptor D4. The following applies: concentration not given here.
In assay [3] the target is T2, 5-hydroxytryptamine receptor 2C (Homo sapiens) (UniProt P28335).
T2 sequence (whole entry): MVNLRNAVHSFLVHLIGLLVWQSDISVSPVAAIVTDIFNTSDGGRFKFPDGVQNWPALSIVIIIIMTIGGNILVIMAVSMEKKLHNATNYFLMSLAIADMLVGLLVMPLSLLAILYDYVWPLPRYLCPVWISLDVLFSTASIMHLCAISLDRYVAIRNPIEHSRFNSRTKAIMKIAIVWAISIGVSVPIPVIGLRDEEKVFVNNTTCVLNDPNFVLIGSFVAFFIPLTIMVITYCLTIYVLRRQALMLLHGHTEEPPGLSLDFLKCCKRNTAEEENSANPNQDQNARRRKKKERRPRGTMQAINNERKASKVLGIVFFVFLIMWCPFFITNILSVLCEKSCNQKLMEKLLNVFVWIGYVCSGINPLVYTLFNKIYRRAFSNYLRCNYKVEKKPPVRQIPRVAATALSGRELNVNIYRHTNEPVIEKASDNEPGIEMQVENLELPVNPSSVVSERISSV
Nature of the assay: Agonistic binding affinity against human 5-hydroxytryptamine 2C receptor in CHO cells using [125I]- DOI radioligand, expressed as Emax. It is filed as cell-based.

The target of assay [4] is D(3) dopamine receptor (Homo sapiens) (UniProt P35462). Nature of the assay: Percent binding affinity against dopamine D3 receptor. The following applies: concentration not given here.
Assay [5] addresses T3, 5-hydroxytryptamine receptor 2A (Homo sapiens, UniProt P28223). As to the kind of experiment: Effective concentration against human 5-hydroxytryptamine 2A receptor in CHO cells by stimulation of [3H]inositol monophosphate production.
The target in assay [6] is T3, 5-hydroxytryptamine receptor 2A. As to the kind of experiment: Agonistic binding affinity against human 5-hydroxytryptamine 2A receptor in CHO cells using [125I]-DOI.
Assay [7] deals with T2, 5-hydroxytryptamine receptor 2C (Homo sapiens). As to the kind of experiment: Agonistic binding efficacy against human 5-hydroxytryptamine 2C receptor in CHO cells using [125I]- DOI radioligand. It is filed as cell-based.
For assay [8], the target named is T4, 5-hydroxytryptamine receptor 2C (Homo sapiens, UniProt P28335).
T4 sequence (P28335 whole entry): T2 sequence (whole entry)
As to the kind of experiment: Agonistic binding affinity against human 5-hydroxytryptamine 2C receptor in CHO cells using [125I]- DOI. The format is cell-based.

Assay [9] deals with T3, 5-hydroxytryptamine receptor 2A. Nature of the assay: Agonistic binding affinity against human 5-hydroxytryptamine 2A receptor in CHO cells using [125I]DOI radioligand.

T3 sequence (P28223 whole entry): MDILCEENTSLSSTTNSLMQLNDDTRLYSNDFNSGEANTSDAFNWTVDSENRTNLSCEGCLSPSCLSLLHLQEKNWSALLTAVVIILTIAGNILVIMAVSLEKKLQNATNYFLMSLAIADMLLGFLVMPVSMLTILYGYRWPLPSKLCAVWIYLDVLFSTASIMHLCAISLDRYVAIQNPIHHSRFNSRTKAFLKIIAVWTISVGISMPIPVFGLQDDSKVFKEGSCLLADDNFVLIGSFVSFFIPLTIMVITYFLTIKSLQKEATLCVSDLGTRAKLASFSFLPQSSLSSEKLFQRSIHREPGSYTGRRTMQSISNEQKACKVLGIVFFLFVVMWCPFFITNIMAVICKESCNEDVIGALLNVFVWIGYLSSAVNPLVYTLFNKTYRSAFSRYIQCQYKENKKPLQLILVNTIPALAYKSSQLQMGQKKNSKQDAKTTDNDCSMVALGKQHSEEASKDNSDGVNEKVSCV
Chain of D(3) dopamine receptor (Homo sapiens) (P35462 whole entry, looked up): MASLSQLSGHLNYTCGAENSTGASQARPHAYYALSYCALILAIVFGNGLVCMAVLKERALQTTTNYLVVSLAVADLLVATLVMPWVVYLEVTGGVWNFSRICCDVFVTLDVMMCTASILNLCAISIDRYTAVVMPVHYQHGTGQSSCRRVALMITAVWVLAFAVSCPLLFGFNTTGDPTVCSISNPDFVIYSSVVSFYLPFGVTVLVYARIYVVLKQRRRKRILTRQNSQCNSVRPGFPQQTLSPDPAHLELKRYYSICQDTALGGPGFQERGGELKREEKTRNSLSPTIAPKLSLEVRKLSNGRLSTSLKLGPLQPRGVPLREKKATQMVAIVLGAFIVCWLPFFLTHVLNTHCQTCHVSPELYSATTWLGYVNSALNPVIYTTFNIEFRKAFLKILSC
Chain of D(4) dopamine receptor (Homo sapiens) (P21917 whole entry, looked up): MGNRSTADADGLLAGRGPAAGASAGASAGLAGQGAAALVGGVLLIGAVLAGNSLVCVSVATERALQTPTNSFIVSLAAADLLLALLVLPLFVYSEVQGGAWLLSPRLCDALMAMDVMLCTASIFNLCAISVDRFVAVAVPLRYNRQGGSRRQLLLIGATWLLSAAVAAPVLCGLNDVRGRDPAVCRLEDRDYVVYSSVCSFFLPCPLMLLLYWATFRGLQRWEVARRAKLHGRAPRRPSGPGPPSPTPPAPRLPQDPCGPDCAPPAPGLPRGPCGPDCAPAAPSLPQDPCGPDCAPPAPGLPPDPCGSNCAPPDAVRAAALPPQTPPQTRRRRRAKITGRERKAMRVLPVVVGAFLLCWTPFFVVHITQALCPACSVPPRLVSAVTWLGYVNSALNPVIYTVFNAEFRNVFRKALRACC

Regarding `c1cc2c3c(c1)c1c(n3CCNC2)CCCCCC1`, the inhibition in [1] was found to be 4%; in [2] it was 47%; in assay [4], 37%. Further, in assay [3], the Emax amounted to 102%. Further, the pEC50 in assay [5] is 4.19. Further, the negative-log Ki (pKi) in [6] is 7.44. The molecule further registered an Efficacy in assay [7] of 102%.

Take `CC1(C)Cc2c(c3cccc4c3n2CCNC4)C(C)(C)C1`: the results for the pKi in assay [8] and in assay [6] were 7.10 and 6.82, respectively.

Take `Cc1cc2c3c(c1)c1c(n3CCNC2)CCCC1`: the pKi in assay [6] is 5.91.

Regarding `C[C@@H]1Cn2c3c(c4cccc(c42)CN1)CCCC3`, the pKi in [6] was 5.81.

`c1cc2c3c(c1)c1c(n3CCNC2)CCCCC1` had a pKi in assay [6] of 6.70. In [7], this molecule came in with an Efficacy of 73%.

Consider `c1cc2c3c(c1)c1c(n3CCNC2)CCC1`, for which the negative-log Ki (pKi) in assay [9] is 6.04. This molecule also had an Emax in assay [3] of 90%.

As for `Cc1cc2c3c(c1)c1c(n3CCNC2)CCC1`, the negative-log Ki (pKi) in [6] was 5.60.

Molecule `Fc1ccc2c3c1c1c(n3CCNC2)CCCC1` had a negative-log Ki (pKi) in [8] of 6.95.
